Test results as given in patent publication US12479818B2, “Treatment of fibrosis with IRE1 small molecule inhibitors” (Cornell University, priority 2019, dated 2025).

Legend:
293T cells = assay: Growth assay (cytotoxicity); type: cell-based, human; settings: 2 day incubation
Procedure: A growth assay was performed to evaluate the compounds disclosed herein for cytotoxicity. […] 133.3 uL cDMEM was added to wells 1, 2, 3, 5, 6, and 7 in rows A, C, E and G of the dilution plate. Compounds were serially diluted leftwards in threefold dilutions (66.7 uL into 133.3 uL cDMEM). 20 μL of each dilution was transferred in duplicate (duplicates in vertical paired wells) to the cells plated in the 96-well plate shown in Table 5, to the total concentrations shown below. 200 uL cDMEM was added to media wells (wells G5-H8). The plate was then placed in a humidified chamber for a 2 day incubation, and then photographed (media was more yellow in wells with potent cell growth).

IRE1a [1] = molecular target: T1, IRE1a (Homo sapiens, UniProt O75460); assay: In vitro FRET assay (IRE1a cleavage of XBP1 RNA probe); type: biochemical; parameters: purchased SignalChem; settings: IRE1a 2 nM, tested as the salt named
Procedure: Selected compounds were serially diluted with DMSO in a non-binding black 384-well plate for a total of 15 ul in each well. 2 ul of the serially diluted compound or DMSO control were then added to new wells containing 98 ul of 1×CAB, for a total volume of 100 ul, 10 ul of which were then transferred to wells of a new plate. 5 ul of the diluted IRE1a was then added to each well. 5 ul of a […] XBP1 RNA probe was then added to each well.
Each probe contained a 5′ 6-FAM modification and a 3′ IOWA Black FQ modification.
A second FRET assay was performed to assess ATP-mediated inhibition. In this case, compounds and IRE1a were prepared and combined as discussed above, with the addition of ATP up to 1 mM final concentration. This mixture was incubated at room temperature for 60 minutes and then 5 ul of 400 nM XBP1 wildtype or mutant RNA probe was added.

IRE1a [2] = molecular target: T1, IRE1a; assay: IRE1a Endoribonuclease Nanoluciferase Assay (XBP1 luciferase reporter in 293T cells); type: cell-based; parameters: endogenous in cells; host or cells: 293T; settings: XBP1 nanoluciferase reporter in 293T cells, ER stressor; tested as the salt named
[3] = Bioavailability assay (mouse pharmacokinetic study); type: in vivo; settings: IV 1 mg/kg, PO 30 mg/kg (Compound A PO 10 mg/kg)
[4] = test system: IRE1a-mediated XBP1 splicing; assay: Assay for target engagement in pancreas and salivary gland (RT-qPCR of XBP1 splicing); type: in vivo; settings: mice, 30 mg/kg oral gavage, 6 hours, compared to control and Compound B
Procedure: Mice (n=3 per group) were orally gavaged with 30 mg/kg vehicle control or IRE1 inhibitors dissolved in H2O. After 6 hours, mice were euthanized and pancreas and salivary gland tissues were isolated, snap frozen on dry ice, and used for subsequent RT-qPCR analysis of beta-actin, XBP1s and total XBP1. Gene expression was evaluated by quantitative PCR for XBP1s and total XBP1 transcripts using the 2^(−ΔCT) method for calculating normalized gene expression. Gene expression levels were normalized to Actb transcripts. XBP1 splicing is calculated as XBP1s expression divided by total XBP1 expression.

IRE1a/XBP1 pathway = assay: Assay for inhibition of endogenous XBP1 splicing in 293T cells with tunicamycin; type: cell-based, human; settings: XBP1 splicing by qPCR
Procedure: Gene expression was evaluated by quantitative PCR for XBP1s and total XBP1 transcripts using the 2^(−ΔCT) method for calculating normalized gene expression. Gene expression levels were normalized to ACTB transcripts. XBP1 splicing was calculated as actin-normalized XBP1s expression divided by actin-normalized total XBP1 expression.

[5] = Metabolic assays of N,N-dimethyl compounds; type: in vitro ADME; settings: data not shown
IRE1a [6] = molecular target: T1, IRE1a; assay: IRE1a phosphorylation inhibition assay (immunoblot, tunicamycin-treated 293T cells); type: cell-based; parameters: endogenous in cells; host or cells: 293T; settings: human 293T cells
Procedure: Inhibition of ER stress-induced IRE1a phosphorylation and XBP1s protein accumulation in human 293T cells was assessed. Immunoblot analysis was performed in human 293T cells lysates obtained from cells after exposure to the chemical ER stress-inducing agent tunicamycin, and optional treatment with Compound C. Lysates were probed with antibodies recognizing IRE1a, phosphorylated IRE1a, XBP1, or TATA-binding protein (TBP). TBP was blotted as a protein loading control. […] 20 nM was sufficient to reduce XBP1s protein levels below the limit of detection in this assay.

T1 sequence (O75460 19-977): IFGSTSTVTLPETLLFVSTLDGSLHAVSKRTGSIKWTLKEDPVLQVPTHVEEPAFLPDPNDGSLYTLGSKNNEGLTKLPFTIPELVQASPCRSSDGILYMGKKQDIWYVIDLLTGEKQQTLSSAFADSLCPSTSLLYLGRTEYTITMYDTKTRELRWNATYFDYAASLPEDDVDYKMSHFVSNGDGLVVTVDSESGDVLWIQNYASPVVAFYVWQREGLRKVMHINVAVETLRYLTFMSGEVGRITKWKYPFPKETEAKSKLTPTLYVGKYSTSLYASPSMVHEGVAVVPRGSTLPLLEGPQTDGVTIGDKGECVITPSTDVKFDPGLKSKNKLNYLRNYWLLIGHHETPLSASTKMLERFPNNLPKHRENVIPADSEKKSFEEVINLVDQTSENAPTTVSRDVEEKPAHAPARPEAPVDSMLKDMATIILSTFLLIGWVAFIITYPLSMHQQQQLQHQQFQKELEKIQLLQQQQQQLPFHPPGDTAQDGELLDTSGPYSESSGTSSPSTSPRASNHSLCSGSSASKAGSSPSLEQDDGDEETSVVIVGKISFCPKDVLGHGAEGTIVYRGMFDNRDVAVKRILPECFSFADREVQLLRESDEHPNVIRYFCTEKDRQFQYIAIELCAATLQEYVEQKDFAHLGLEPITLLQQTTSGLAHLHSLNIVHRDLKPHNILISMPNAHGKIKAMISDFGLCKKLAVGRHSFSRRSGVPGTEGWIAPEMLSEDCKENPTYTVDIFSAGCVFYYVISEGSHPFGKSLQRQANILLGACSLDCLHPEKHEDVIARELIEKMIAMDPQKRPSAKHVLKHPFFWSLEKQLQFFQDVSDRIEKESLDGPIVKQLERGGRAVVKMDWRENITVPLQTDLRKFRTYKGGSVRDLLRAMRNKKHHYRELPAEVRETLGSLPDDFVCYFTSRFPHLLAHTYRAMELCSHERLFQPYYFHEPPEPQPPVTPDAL

| Structure (SMILES) | IC50 (IRE1a [1]) [nM] | EC50 (IRE1a [2]) [nM] | also measured |
| --- | --- | --- | --- |
| CCc1cc(-c2cnc(NS(=O)(=O)c3ccccc3Cl)cn2)cc2cnc(N[C@H]3CC[C@H](N)CC3)nc12 [Compound 25, N-(5-(2-(((1r,4r)-4-aminocyclohexyl)amino)-8-ethylquinazolin-6-yl)pyrazin-2-yl)-2-chlorobenzene-sulfonamide] | < 5 | < 5 | % Growth at 0.185 uM (293T cells; 0.185 uM): D (D: > 75% to ≤ 100%); % Growth at 0.5556 uM (293T cells): D (D: > 75% to ≤ 100%); % Growth at 1.667 uM (293T cells): D (D: > 75% to ≤ 100%); % Growth at 5 uM (293T cells): D (D: > 75% to ≤ 100%) |
| CCc1cc(-c2ccc(NS(=O)(=O)c3ccccc3Cl)nc2OC)cc2cnc(N[C@H]3CC[C@H](N)CC3)nc12 [Compound 37, N-(5-(2-(((1r,4r)-4-aminocyclohexyl)amino)-8-ethylquinazolin-6-yl)-6-methoxypyridin-2-yl)-2-chlorobenzene-sulfonamide] | – | < 5 | % Growth at 0.5556 uM (293T cells): D (D: > 75% to ≤ 100%); % Growth at 1.667 uM (293T cells): C (C: > 50% to ≤ 75%); % Growth at 5 uM (293T cells): B (B: > 25% to ≤ 50%) |
| CCc1cc(-c2ccc(NS(=O)(=O)c3ccccc3Cl)c(F)c2)cc2cnc(N[C@H]3CC[C@H](NC(=O)[C@@H](N)C(C)C)CC3)nc12 [Compound 58, (S)-2-amino-N-((1r,4S)-4-((6-(4-((2-chlorophenyl)sulfonamido)-3-fluorophenyl)-8-ethylquinazolin-2-yl)amino)cyclohexyl)-3-methylbutanamide] | 5 to 50 | < 5 | – |
| CCc1cc(-c2ccc(NS(=O)(=O)c3ccccc3Cl)c(F)c2)cc2cnc(N[C@@H]3CC[C@H](N)[C@H](C)C3)nc12 [Compound 70, N-(4-(2-(((1R,3R,4S)-4-amino-3-methylcyclohexyl)amino)-8-ethylquinazolin-6-yl)-2-fluorophenyl)-2-chlorobenzene-sulfonamide] | < 5 | < 5 | – |
| CCc1cc(-c2ccc(NS(=O)(=O)c3ccccc3Cl)c(F)c2)cc2cnc(N[C@H]3CCCNC3)nc12 [Compound 73, (S)-2-chloro-N-(4-(8-ethyl-2-(piperidin-3-ylamino)quinazolin-6-yl)-2-fluorophenyl) benzene-sulfonamide] | < 5 | < 5 | – |
| N[C@H]1CC[C@@H](Nc2ncc3cc(-c4ccc(NS(=O)(=O)c5ccccc5Cl)c(F)c4)ccc3n2)C1 [Compound 80] | < 5 | 100 to 10000 | – |
| CCc1cc(-c2ccc(NS(=O)(=O)c3ccccc3Cl)nc2C)cc2cnc(N[C@H]3CC[C@H](N(C)C)CC3)nc12 [Compound 91, 2-chloro-N-(5-(2-(((1r,4r)-4-(dimethylamino)cyclohexyl)amino)-8-ethylquinazolin-6-yl)-6-methylpyridin-2-yl)benzenesulfonamide] | < 5 | < 5 | – |
| CCc1c(F)c(-c2ccc(NS(=O)(=O)c3ccccc3Cl)nc2C)cc2cnc(N[C@H]3CC[C@H](N(C)C)CC3)nc12 [Compound 161, 2-chloro-N-(5-(2-(((1r,4r)-4-(dimethylamino)cyclohexyl)amino)-8-ethyl-7-fluoroquinazolin-6-yl)-6-methylpyridin-2-yl)benzenesulfonamide] | – | < 5 | – |
| CCc1c(F)c(-c2cc(F)c(NS(=O)(=O)c3ccccc3Cl)nc2C)cc2cnc(N[C@H]3CC[C@H](N(C)C)CC3)nc12 [Compound 162, 2-chloro-N-(5-(2-(((1r,4r)-4-(dimethylamino)cyclohexyl)amino)-8-ethyl-7-fluoroquinazolin-6-yl)-3-fluoro-6-methylpyridin-2-yl)benzenesulfonamide] | – | < 5 | – |
| CCc1c(F)c(-c2cc(F)c(NS(=O)(=O)c3ccccc3Cl)nc2OC)cc2cnc(N[C@H]3CC[C@H](N(C)C)CC3)nc12 [Compound 163, 2-chloro-N-(5-(2-(((1r,4r)-4-(dimethylamino)cyclohexyl)amino)-8-ethyl-7-fluoroquinazolin-6-yl)-3-fluoro-6-methoxypyridin-2-yl)benzenesulfonamide] | – | < 5 | – |
| CCc1cc(-c2ccc(NS(=O)(=O)c3ccccc3Cl)nc2C)cc2cnc(N[C@H]3CC[C@H](N)CC3)nc12 [Compound A, N-(5-(2-(((1r,4r)-4-aminocyclohexyl)amino)-8-ethylquinazolin-6-yl)-6-methylpyridin-2-yl)-2-chlorobenzenesulfonamide] | – | – | oral bioavailability [3]: 4% |
| CCc1cc(-c2ccc(NS(=O)(=O)c3ccccc3Cl)nc2C)cc2cnc(NC3CCC(N(C)C)CC3)nc12 (centres unmarked) [Compound C] | – | – | suppression of IRE1a-mediated XBP1 splicing in pancreas and salivary gland [4]: potently suppressed; shift in potency between Compound A and Compound C (IRE1a/XBP1 pathway): approximately 3.6 ×; metabolic fate [5]: removal of the methyl groups; concentration sufficient to reduce XBP1s protein levels below the limit of detection (IRE1a [6]): 20 nM; ER stress-induced IRE1a phosphorylation (IRE1a [6]; pre-incubation with compound): strongly repressed; accumulation of XBP1s protein (IRE1a [6]; pre-incubation with compound): completely abrogated |
| CCc1cc(-c2ccc(NS(=O)(=O)c3ccccc3Cl)nc2OC)cc2cnc(NC3CCC(N(C)C)CC3)nc12 (centres unmarked) [Compound D] | – | – | suppression of IRE1a-mediated XBP1 splicing in pancreas and salivary gland [4]: potently suppressed; metabolic fate [5]: removal of the methyl groups |
